Results: patent US20250137050A1, “METHODS AND COMPOSITIONS FOR DETERMINING RISK OF AUTISM SPECTRUM DISORDERS” (The Regents of the University of California, priority 2021, published 2025)
“Also recorded” adds a separate entry of the source.

What was measured:
Type in all cases: cell-based, human
LUHMES cells [1] = assay: Cell viability (CellTiter Blue) of LUHMES cells after hypoxia mimetic; details: differentiated LUHMES neurons compared with undifferentiated; CoCl2 for 24 hours
Protocol: (§1) LUHMES cells (ATCC, Manassas, VA, USA, CRL-2927) were seeded on fibronectin coated plates (Thermo Fisher Scientific, Waltham, MA, USA, CWP001, 354402). Undifferentiated cells were maintained in proliferation medium: Advanced DMEM/F12 (Invitrogen, Carlsbad, CA, USA), supplemented with N2 supplement (Invitrogen, Carlsbad, CA, USA), Penicillin-streptomycin-glutamine (Thermo Fisher Scientific, Waltham, MA, USA), and 40 ng/ml recombinant bFGF (Invitrogen, Carlsbad, CA, USA). To generate differentiated LUHMES, cells were switched to differentiation media for five days. […] For RNA quantification, cells were maintained in 6-well plates. […]
(§2) All cells were maintained at 37° C. containing […] and 5% CO2. […] Cell numbers were measured using disposable countess chamber slide on Countess II FL automated cell counter (Thermo Fisher Scientific, Waltham, MA, USA) under the default steps with mixing 10 μl of samples with 10 μl of trypan blue. CellTiter Blue reagent was used for measured cell viability using […] based on manufacturer instruction (Promega, Madison, WI, USA). H2O2 production represented relative reactive oxygen species (ROS) level was measured with the ROS-Glo H2O2 assay system using 50 nM with the default setting with level measured by luminometer (Promega, Madison, WI, USA).

LUHMES cells [2] = assay: Reactive oxygen species (ROS-Glo H2O2 assay) in LUHMES cells after hypoxia mimetic; details: differentiated LUHMES neurons compared with undifferentiated; 100 nM CoCl2 for 24 hours
Protocol: as §1, §2

NHIP = NHIP transcript levels by RT-qPCR in LUHMES cells after hypoxia mimetic; details: differentiated LUHMES cells
Protocol: as §1, with “days. Differentiation media: Advanced DMEM/F12, supplemented with N2 supplement, Penicillin-streptomycin-glutamine, 1 mM dbcAMP (MilliporeSigma, Burlington, MA, USA), 1 μg/ml tetracycline (Neta Scientific, Hainesport, NJ, USA), and 2 ng/ml recombinant human GDNF (Thermo Fisher Scientific, Waltham, MA, USA).” for “days.”
Total RNA was isolated from HEK293T cells transiently transfected with NHIP-eGFP or negative control NEG-eGFP using AllPrep DNA/RNA/Protein mini kit (Qiagen, Hilden, Germany). […] Fold changes of transcript levels were measured using the Fluidigm Real-Time PCR Analysis software calculated fold change of gene expression as the delta delta CT normalized to GAPDH (Fluidigm, San Francisco, CA, USA).

## [Cl][Co][Cl] [CoCl2, cobalt chloride]
LUHMES cells [1]
  cell viability: significant decrease
LUHMES cells [2]
  reactive oxygen species (ROS) levels: increase
NHIP; 100 nM CoCl2 for 24 hours vs mock, normalized to GAPDH
  NHIP transcript levels: significantly increased
NHIP; 48 hours of recovery (Day 8) after 24 hours of CoCl2
  NHIP transcript levels after removal of hypoxia mimetic: returned to untreated levels; also recorded: returned to mock control baseline levels
